This assay concerns the target T1, human TRPML3 (Homo sapiens, UniProt Q8TDD5).
T1 construct: expressed in transfected cells
T1 sequence (Q8TDD5 1-553): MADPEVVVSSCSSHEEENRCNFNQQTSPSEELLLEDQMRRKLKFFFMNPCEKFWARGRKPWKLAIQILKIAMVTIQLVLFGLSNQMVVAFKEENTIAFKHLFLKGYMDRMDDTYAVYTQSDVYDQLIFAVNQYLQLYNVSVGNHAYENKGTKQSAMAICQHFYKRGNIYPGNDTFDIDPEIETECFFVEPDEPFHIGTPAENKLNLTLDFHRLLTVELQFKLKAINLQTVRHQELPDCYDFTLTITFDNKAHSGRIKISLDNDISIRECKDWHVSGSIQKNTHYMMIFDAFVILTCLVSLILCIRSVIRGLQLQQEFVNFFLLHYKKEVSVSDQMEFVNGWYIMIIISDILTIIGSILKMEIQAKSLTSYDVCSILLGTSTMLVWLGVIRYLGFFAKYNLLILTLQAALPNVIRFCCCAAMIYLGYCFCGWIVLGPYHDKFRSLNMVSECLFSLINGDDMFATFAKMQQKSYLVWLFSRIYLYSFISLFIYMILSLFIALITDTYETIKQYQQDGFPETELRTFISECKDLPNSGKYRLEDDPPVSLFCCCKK
The assay can be described thus: Two-electrode voltage clamp in oocytes injected with human TRPML3 cRNA. Particulars: 300 uM gadolinium (GdCl3) solution; −100 to +60 mV. In kind it is cell-based. The method, then:
Twenty-four to forty-eight hours following microinjection of 10-25 ng human TRPML3 cRNA, TRPML3 function is measured in oocytes using the two-electrode voltage clamp technique on an OpusXpress 6000A parallel oocyte voltage clamp system (MDS Analytical Technologies). The two-electrode voltage clamp technique is an electrophysiology method that measures the macroscopic electrical current flowing across the entire oocyte membrane though protein channels (Stuhmer, Methods in Enzymology (1992) 207: 319-339). Oocytes are impaled with a voltage-sensing electrode and a current-sensing electrode; the voltage, or potential difference across the oocyte membrane, is clamped to a particular value using the voltage-sensing electrode and the current, or the flow of ions across the oocyte membrane, required to maintain that voltage is measured using the current-sensing electrode. […]
If the compound functions as a TRPML3 enhancer, the current passing through TRPML3 channels in the oocyte membrane increases (becomes more negative). […] To quantitate the effect of a compound on TRPML3 function, the following formula is used: […]
This value corresponds to the magnitude of the current change due to compound divided by the magnitude of the current change due to NMDG multiplied by −100%. […] All four oocytes expressed TRPML3, as evidenced by the inhibitory effect of NMDG on measured oocyte currents. […]

`[Cl][Gd]([Cl])[Cl]` [gadolinium, gadolinium chloride]: the “effect on TRPML3 current and slope of the I/V curve” value is “blocks TRPML3 current and decreases the slope of the I/V curve”.

The values are drawn from patent publication US20090117563A1, “Identification of TRPML3 (MCOLN3) as a Salty Taste Receptor and Use in Assays for Identifying Taste (Salty) Modulators and/or Therapeutics that Modulate Sodium Transport, Absorption or Excretion and/or Aldosterone and/or Vasopressin Production or Release” (priority 2007, published 2009).
